One experiment has as its target FGFR1 (Homo sapiens (Human), UniProt P11362). Kind of experiment: Kinase assay, binding constants (Kd), kinase-tagged T7 phage, qPCR. In short, it runs like this:
(§1)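 Kinase-tagged T7 phage (grown in BL21-derived E. coli) competed with test compound for immobilized biotinylated ligand on streptavidin beads. Kds came from an 11-point 3-fold dilution series at 0.9% final DMSO. Bound kinase was eluted with non-biotinylated ligand and quantified by qPCR, with Hill slope fixed at −1.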

The next experiment has as its target FGFR4 (Homo sapiens (Human), UniProt P22455). The experiment is described as above. In short, it runs like this:
as §1

The target of another experiment is FGFR3 (Homo sapiens (Human), UniProt P22607). Described as above. In short, it runs like this: as §1
Chain of FGFR3 (P22607 23-806): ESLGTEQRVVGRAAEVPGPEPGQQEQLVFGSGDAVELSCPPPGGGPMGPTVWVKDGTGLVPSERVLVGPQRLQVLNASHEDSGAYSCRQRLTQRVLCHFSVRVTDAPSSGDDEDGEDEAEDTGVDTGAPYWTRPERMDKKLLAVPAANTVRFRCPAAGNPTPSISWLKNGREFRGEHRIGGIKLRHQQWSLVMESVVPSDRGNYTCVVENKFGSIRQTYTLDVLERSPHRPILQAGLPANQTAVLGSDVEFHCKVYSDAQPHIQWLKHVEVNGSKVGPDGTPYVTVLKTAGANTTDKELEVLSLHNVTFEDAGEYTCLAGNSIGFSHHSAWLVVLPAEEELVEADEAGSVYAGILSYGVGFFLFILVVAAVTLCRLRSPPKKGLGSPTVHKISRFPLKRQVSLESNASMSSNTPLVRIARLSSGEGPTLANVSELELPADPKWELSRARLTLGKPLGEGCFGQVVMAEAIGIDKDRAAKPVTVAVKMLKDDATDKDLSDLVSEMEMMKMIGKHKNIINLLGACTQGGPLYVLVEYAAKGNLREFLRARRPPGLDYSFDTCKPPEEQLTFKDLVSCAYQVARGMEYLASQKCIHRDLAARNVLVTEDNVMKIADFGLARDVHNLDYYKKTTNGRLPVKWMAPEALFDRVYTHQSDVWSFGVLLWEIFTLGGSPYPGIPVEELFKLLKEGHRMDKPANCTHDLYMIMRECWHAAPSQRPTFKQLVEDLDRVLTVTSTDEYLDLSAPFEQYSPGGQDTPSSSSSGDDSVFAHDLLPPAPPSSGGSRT
A further experiment concerns the target FGFR3 (V555M) (Homo sapiens (Human), UniProt P22607, V555M). The description is as above. Particulars: V555M mutant. An outline of the steps: as §1
In the next experiment the target is FGFR2 (Homo sapiens (Human), UniProt P21802). Described as above. In short, it runs like this: as §1
Chain of FGFR2 (P21802 22-821): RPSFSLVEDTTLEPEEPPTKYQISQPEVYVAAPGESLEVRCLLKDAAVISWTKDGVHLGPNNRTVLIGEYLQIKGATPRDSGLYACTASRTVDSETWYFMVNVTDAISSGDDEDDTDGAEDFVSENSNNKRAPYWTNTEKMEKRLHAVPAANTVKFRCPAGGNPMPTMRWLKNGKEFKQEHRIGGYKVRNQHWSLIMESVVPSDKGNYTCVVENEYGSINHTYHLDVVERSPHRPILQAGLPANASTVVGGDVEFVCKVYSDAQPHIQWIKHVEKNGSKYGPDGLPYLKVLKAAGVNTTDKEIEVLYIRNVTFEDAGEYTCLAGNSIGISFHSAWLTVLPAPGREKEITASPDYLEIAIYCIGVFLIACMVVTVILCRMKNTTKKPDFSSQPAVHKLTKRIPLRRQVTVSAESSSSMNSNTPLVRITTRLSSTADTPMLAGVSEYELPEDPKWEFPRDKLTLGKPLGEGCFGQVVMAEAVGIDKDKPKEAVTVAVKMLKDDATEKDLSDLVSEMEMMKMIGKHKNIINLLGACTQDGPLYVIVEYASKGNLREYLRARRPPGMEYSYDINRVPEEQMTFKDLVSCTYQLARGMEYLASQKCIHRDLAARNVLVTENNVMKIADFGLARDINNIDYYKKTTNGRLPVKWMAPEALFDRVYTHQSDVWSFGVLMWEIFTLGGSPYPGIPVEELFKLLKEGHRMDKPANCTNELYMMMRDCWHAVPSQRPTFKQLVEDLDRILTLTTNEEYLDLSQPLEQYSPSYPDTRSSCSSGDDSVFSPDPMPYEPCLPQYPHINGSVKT
Experiment [1] has as its system KG-1 cells (FGFR1-fusion). Kind of experiment: KG-1 cancer cell line cell viability assay (CellTiter-Glo 2.0). The experiment is classed as cell-based. To be noted: Homo sapiens, 72 hours, Cell Titer Glo 2.0. An outline of the steps:
(§2)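 Viability was measured as cellular ATP by CellTiter-Glo 2.0 luminescence after 72 h compound exposure, using nine 10-fold doses from 30 μM, in triplicate. Cells were plated at 10,000/well in RPMI1640 with 10% FBS the day before dosing. Signal was expressed as % of DMSO-treated control, and IC50 came from a 4-parameter fit.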

For experiment [2], the target named is FGFR3-BAIAP2L1 Ba/F3 cells (Homo sapiens, UniProt P22607). Put plainly: Ba/F3 cell viability assay (CellTiter-Glo 2.0), FGFR3-BAIAP2L1 Ba/F3. Particulars: for Ba/F3 FGFR1/FGFR3 Selectivity: FGFR3 > FGFR1 selectivity ratio in Ba/F3 FGFR fusion cell based assays; for IC50: read-out: Ba/F3 Cells FGFR3 (IC50 nM), FGFR3-BAIAP2L1 Ba/F3 cells, 48 hours, Cell Titer Glo 2.0. In kind it is cell-based. An outline of the steps: (§3)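 Viability read as ATP luminescence (CellTiter-Glo 2.0) after 48 h compound exposure, normalized to DMSO-treated cells and fitted with a 4-parameter curve for IC50. Cells: Ba/F3 dependent on FGFR1-BCR or FGFR3-BAIAP2L1 fusion kinase; top dose 30 μM, 10-fold steps, 9 doses in triplicate.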
Chain of FGFR3-BAIAP2L1 Ba/F3 cells (P22607 23-806 limits assumed, change not shown): as the sequence (P22607 23-806) above

For the next experiment, the target named is FGFR1-BCR Ba/F3 cells (Homo sapiens, UniProt P11362). Kind of experiment: Ba/F3 cell viability assay (CellTiter-Glo 2.0), FGFR1-BCR Ba/F3. In kind it is cell-based. To be noted: read-out: Ba/F3 Cells FGFR1 (IC50 nM), 48 hours, Cell Titer Glo 2.0. In short, it runs like this:
as §3

In experiment [3] the test system is UM-UC-14 cells (FGFR3(S249C)). Kind of experiment: UM-UC-14 cancer cell line cell viability assay (CellTiter-Glo 2.0). The experiment is classed as cell-based. To be noted: UMUC14, 72 hours, Cell Titer Glo 2.0. An outline of the steps: as §2
Experiment [4] deals with RT112/84 cells (FGFR3-fusion). Kind of experiment: RT112/84 cancer cell line cell viability assay (CellTiter-Glo 2.0). In kind it is cell-based. To be noted: Homo sapiens, 72 hours, Cell Titer Glo 2.0. An outline of the steps:
as §2

Chain of FGFR1-BCR Ba/F3 cells (P11362 22-822 limits assumed, change not shown): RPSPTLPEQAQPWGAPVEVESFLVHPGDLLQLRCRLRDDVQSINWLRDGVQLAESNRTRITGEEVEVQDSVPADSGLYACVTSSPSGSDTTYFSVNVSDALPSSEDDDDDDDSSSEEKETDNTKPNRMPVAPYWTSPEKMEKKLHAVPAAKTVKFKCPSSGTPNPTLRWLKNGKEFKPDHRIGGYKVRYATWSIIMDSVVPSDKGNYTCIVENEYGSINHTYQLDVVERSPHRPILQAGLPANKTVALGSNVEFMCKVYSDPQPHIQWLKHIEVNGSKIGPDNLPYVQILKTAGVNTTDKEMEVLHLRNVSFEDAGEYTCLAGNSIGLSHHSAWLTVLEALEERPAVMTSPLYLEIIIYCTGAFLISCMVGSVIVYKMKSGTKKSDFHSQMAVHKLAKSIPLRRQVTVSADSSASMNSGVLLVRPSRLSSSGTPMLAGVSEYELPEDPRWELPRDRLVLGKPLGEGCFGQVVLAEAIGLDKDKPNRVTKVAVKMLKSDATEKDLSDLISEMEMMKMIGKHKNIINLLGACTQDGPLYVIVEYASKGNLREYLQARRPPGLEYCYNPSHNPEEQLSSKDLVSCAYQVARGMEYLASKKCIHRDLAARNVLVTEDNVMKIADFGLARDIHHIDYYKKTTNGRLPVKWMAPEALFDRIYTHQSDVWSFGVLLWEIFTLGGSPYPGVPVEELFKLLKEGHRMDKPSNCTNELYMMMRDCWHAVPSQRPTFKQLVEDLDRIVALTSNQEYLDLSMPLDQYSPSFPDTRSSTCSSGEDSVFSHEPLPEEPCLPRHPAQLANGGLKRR
Chain of FGFR1 (P11362 22-822): as the sequence (P11362 22-822 limits assumed, change not shown) above
Chain of FGFR3 (V555M) (P22607 23-806 V555M): as the sequence (P22607 23-806) above, with V533M counted along it
Chain of FGFR4 (P22455 22-802): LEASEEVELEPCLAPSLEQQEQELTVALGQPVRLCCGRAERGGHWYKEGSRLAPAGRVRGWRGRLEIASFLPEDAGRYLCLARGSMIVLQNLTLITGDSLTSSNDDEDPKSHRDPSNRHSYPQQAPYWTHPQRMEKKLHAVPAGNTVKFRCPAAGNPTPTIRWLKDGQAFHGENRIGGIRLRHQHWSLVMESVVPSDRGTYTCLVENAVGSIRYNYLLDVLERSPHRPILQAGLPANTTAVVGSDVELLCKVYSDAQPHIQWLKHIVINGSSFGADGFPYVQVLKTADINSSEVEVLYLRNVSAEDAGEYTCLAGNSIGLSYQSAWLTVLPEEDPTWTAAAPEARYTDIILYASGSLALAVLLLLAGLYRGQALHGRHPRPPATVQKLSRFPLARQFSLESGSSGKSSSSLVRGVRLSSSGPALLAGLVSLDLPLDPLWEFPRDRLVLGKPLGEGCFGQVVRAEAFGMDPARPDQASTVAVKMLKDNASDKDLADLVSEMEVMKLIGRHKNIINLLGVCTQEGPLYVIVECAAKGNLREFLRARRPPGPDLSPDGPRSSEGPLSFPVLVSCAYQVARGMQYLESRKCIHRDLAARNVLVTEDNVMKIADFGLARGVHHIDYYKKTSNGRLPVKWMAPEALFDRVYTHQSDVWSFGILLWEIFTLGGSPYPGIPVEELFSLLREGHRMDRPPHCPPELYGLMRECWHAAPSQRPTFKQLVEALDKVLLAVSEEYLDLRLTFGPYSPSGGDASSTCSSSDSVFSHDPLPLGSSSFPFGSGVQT

Turning to `C[C@@H](Oc1ccc2[nH]nc(-c3cnc(N4CCC5(CCC(=O)N5C)CC4)nc3)c2c1)c1c(Cl)cncc1Cl` [Example 54, 8-[5-[5-[(1R)-1-(3,5-dichloro-4-pyridyl)ethoxy]-1H-indazol-3-yl]pyrimidin-2-yl]-1-methyl-1,8-diazaspiro[4.5]decan-2-one], the Kd on FGFR1, at FGFR4, on FGFR3, at FGFR3 (V555M) and on FGFR2 was 1 to 20 nM each time. In addition, the IC50 in experiment [1] was in the range of 100 to 300 nM; in [2] it was 1 to 20 nM; on FGFR1-BCR Ba/F3 cells it was 100 to 300 nM; in experiment [3], 1 to 20 nM; in experiment [4], 1 to 20 nM. The “Ba/F3 FGFR1/FGFR3 Selectivity” value in experiment [2] was determined as 13.
As for `C[C@@H](Oc1ccc2[nH]nc(-c3cnc(N4CCCN(C5COC5)CC4)nc3)c2c1)c1c(Cl)cncc1Cl` [Example 60, 5-[(1R)-1-(3,5-Dichloro-4-pyridyl)ethoxy]-3-[2-[4-(oxetan-3-yl)-1,4-diazepan-1-yl]pyrimidin-5-yl]-1H-indazole], the Kd at FGFR1, on FGFR4, at FGFR3, on FGFR3 (V555M) and on FGFR2 was 1 to 20 nM in each case. Further, the IC50 was 100 to 300 nM in experiment [1]; 1 to 20 nM in experiment [2]; 100 to 300 nM at FGFR1-BCR Ba/F3 cells; 20 to 100 nM in [3]; 20 to 100 nM in experiment [4]. In experiment [2], the “Ba/F3 FGFR1/FGFR3 Selectivity” value is 13.
Turning to `Cc1cncc(C)c1[C@@H](C)Oc1ccc2[nH]nc(-c3ccc(N4CC5(C4)CN(S(C)(=O)=O)C5)nc3)c2c1` [Example 139, 5-[(1R)-1-(3,5-dimethyl-4-pyridyl)ethoxy]-3-[6-(2-methylsulfonyl-2,6-diazaspiro[3.3]heptan-6-yl)-3-pyridyl]-1H-indazole], the Kd on FGFR1 lay within 20 to 100 nM; at FGFR4, 1 to 20 nM; at FGFR3, 1 to 20 nM; at FGFR3 (V555M), 1 to 20 nM; at FGFR2, 1 to 20 nM. For the same compound, the IC50 in experiment [1] lay in the range of 100 to 300 nM; in experiment [2], 20 to 100 nM; at FGFR1-BCR Ba/F3 cells it was 100 to 300 nM; in [3], 1 to 20 nM; in experiment [4] it was 1 to 20 nM. In addition, the “Ba/F3 FGFR1/FGFR3 Selectivity” value in experiment [2] is reported as 14.
As for `CCOC(=O)N1CC2(C1)CN(c1ccc(-c3n[nH]c4ccc(O[C@H](C)c5c(C)cnnc5C)cc34)cn1)C2` [Example 142, ethyl 6-[5-[5-[(1R)-1-(3,5-dimethylpyridazin-4-yl)ethoxy]-1H-indazol-3-yl]-2-pyridyl]-2,6-diazaspiro[3.3]heptane-2-carboxylate], the Kd at FGFR1 lay within 20 to 100 nM; on FGFR4 it was 1 to 20 nM; at FGFR3 it was 1 to 20 nM; at FGFR3 (V555M) it was 1 to 20 nM; on FGFR2 it was 1 to 20 nM. The IC50 was 100 to 300 nM in experiment [1]; 1 to 20 nM in [2]; 100 to 300 nM on FGFR1-BCR Ba/F3 cells; 1 to 20 nM in experiment [3]; 20 to 100 nM in experiment [4]. In addition, the “Ba/F3 FGFR1/FGFR3 Selectivity” value in [2] was 25.
Consider `C[C@@H](Oc1ccc2[nH]nc(-c3ccc(N4CC5(CCCS(=O)(=O)C5)C4)nc3)c2c1)c1c(Cl)cncc1Cl` [Example 159, 2-[5-[5-[(1R)-1-(3,5-dichloro-4-pyridyl)ethoxy]-1H-indazol-3-yl]-2-pyridyl]-6λ^6-thia-2-azaspiro[3.5]nonane 6,6-dioxide], for which the Kd on FGFR1, on FGFR4, on FGFR3, on FGFR3 (V555M) and at FGFR2 was 1 to 20 nM throughout. The IC50 in experiment [1] was 1 to 20 nM; in experiment [2], 1 to 20 nM; on FGFR1-BCR Ba/F3 cells it was 20 to 100 nM; in experiment [3], 20 to 100 nM; in experiment [4], 1 to 20 nM. In [2], the “Ba/F3 FGFR1/FGFR3 Selectivity” value was determined as 16.

Values taken from US20240109865A1, “INDAZOLE COMPOUNDS AS KINASE INHIBITORS” (TYRA BIOSCIENCES, INC., priority 2020, published 2024).
